Patent publication US9802880B2, “Cannabigerol derivatives” (VIVACELL BIOTECHNOLOGY ESPAÑA S.L., priority 2014, dated 2017)

Experiments:
Assay type in all cases: in vivo, C57BL/6 mice
EAE mice = assay: Experimental autoimmune encephalomyelitis (EAE), clinical score
Description: C57BL/6 mice were immunized with MOG35-55 and their clinical score evaluated daily. Mice were treated daily with compound (III) (10 mg/kg) on day 6 post-immunization and the 21 following days. […] Values are expressed as means±SEM for 10 animals per group.
C57BL/6 mice were immunized with MOG35-55 and their clinical score evaluated daily. Mice were treated daily with compound (XII) (5 mg/kg) on day 6 post-immunization and the 21 following days. […] Values are expressed as means±SEM for 6 animals per group.
EAE was induced in female C57BL/6 mice at 6-8 weeks of age by subcutaneous immunization with myelin oligodendrocyte glycoprotein polypeptide (MOG35-55) (300 μg) and 200 μg of Mycobacterium tuberculosis (H37Ra Difco, Franklin Lakes, N.J., USA) in a 1:1 mix with […] Freund's adjuvant (CFA, Sigma-Aldrich, Madrid, Spain). On the same day and 2 days later, mice were injected intraperitoneally (ip) with 200 ng of pertussis toxin (Sigma-Aldrich, Madrid, Spain) in 0.1 ml PBS. […] Treatment started at day 6 post-immunization (p.i.) and consisted in daily injections of compounds III (FIG. 6) and XII (FIG. 8) at the indicated doses or of the vehicle alone (DMSO/PBS) for the following 21 days. The mice were examined daily for clinical signs of EAE and disease scores were measured as follows: 0, no disease; 1, limp tail; 2, limp tail and hind limb weakness; 3, hind limb paralysis; 4, hind limb and front limb paralysis; 5, moribund and death. All animals were sacrificed 28 days (p.i.) for further analysis. Once sacrificed, animals were dissected and their spinal cords were rapidly removed and quickly frozen in RNAlater (Sigma-Aldric, Germany).

6-OHDA-lesioned mice = assay: Parkinson's disease 6-OHDA model, rotarod and actimeter; settings: 6-OHDA mice, chronic intraperitoneal treatment 10 mg/ml, 14 days, FIG. 13
Description: C57BL/6 mice were unilaterally injected intracerebroventricullarly with 6-hydroxydopamine (6-OHDA) or saline (control mice) and subjected to chronic intraperitoneal treatment with compound III (10 mg/ml) or vehicle (14 days), starting 16 h after the 6-OHDA injection. Motor coordination was evaluated by rotarod performance and motor activity was evaluated using a computer-aided actimeter. Values are expressed as means±SEM for 6 animals per group.
C57BL/6 mice pretreated intracerebroventricularly (i.c.v.) were anesthetized with an intraperitoneal (i.p.) injection of 200 mg′kg of 2,2,2-tribromoethanol (Sigma-Aldrich) and placed in a stereotaxic frame with a mouse adapter (David Kopf Instruments, Tujunga, Calif., USA). […] Motor coordination was evaluated in the rotarod test (Ugo Basile, Rome, Italy) at crescent speed. […] The latency to fall off the rod was measured on consecutive days in lesioned mice following the compound III administration or vehicle control. Motor activity (ambulatory activity, mean velocity, resting time, fast movements and number of rearings) was evaluated using a computer-aided actimeter (FIG. 13).

[1] = system: COX-2, iNOS, TNFα and IL-6; assay: 3NP model, inflammatory marker mRNAs in the striatum (real-time PCR); settings: 3NP-treated mice, 10 mg/kg, FIG. 10 and FIG. 11
Description: Gene expression of inflammatory markers including COX-2, TNFα, IL-6 and iNOS, was down regulated in 3NP+compound III (10 mg/kg) treated mice compared with 3NP+Vehicle mice. Expression levels were calculated using the 2^−ΔΔct method. Values are expressed as means±SEM for 6 animals per group.
Gene expression of inflammatory markers including COX-2, TNFα, IL-6 and iNOS, was down regulated in 3NP+XII (10 mg/kg) treated mice compared with 3NP+Vehicle mice. Expression levels were calculated using the 2^−ΔΔct method. Values are expressed as means±SEM for 6 animals per group.
Lesions of the striatum were induced with 3-NP in adult (16 week old; 30 g) male C57BL/6 mice (Harlan Ibérica, Barcelona, Spain). […] The right hemisphere was used to dissect the striatum, which was quickly frozen in RNAlater (Sigma-Aldrich, Germany) to analyzed inflammatory markers were by Real Time PCR. […] We evaluated the general locomotor activity, the hindlimb clasping and dystonia, and the truncal dystonia. […]
Total RNA was isolated from striata (3NP model) or spinal cord (EAE model) using RNeasy Lipid Tissue Mini Kit (Qiagen, GmbH). The total amount of RNA extracted was quantitated by spectrometry at 260 nm and its purity from the ratio between the absorbance values at 260 and 280 nm. […] Expression levels were calculated using the 2^−ΔΔct method.

Compound: CCCCCC1=C(NCC)C(=O)C(C/C=C(\C)CCC=C(C)C)=C(O)C1=O [Compound III, 6-(3,7-dimethyl-octa-2,6-dienyl)-5-hydroxy-3-pentyl-2-ethylamino-[1,4]benzoquinone]
- clinical manifestations of EAE (EAE mice; 10 mg/kg daily from day 6 post-immunization for 21 days, FIG. 6): clearly attenuated
- EAE clinical score throughout the experiment (day 6-day 28) (EAE mice; 10 mg/kg daily, score scale 0-5, vehicle-treated mice reached 2.5): < 1.3
- day on which the disease peaked (EAE mice; 10 mg/kg daily, vehicle-treated mice peaked by day 16): 17 day post-injection
- motor symptoms (ambulatory activity, mean velocity, resting time, fast movement, number of rearing, rotarod performance) (6-OHDA-lesioned mice): almost completely suppressed
- up-regulation of pro-inflammatory markers COX-2, iNOS, TNFα and IL-6 in the striatum [1]: attenuated the up-regulation
